Consider one compound from patent EP4631940A1, “COMPOUND TARGETING PAN-KRAS PROTEIN DEGRADATION AGENT AND USE THEREOF” (Betta Pharmaceuticals Co., Ltd., priority 2022, dated 2024).

In one data set the test system is SW620. The experiment in a line: Cell proliferation experiment (CellTiter-Glo). Format: cell-based. The settings on record: Homo sapiens, SW-620, 96 h, read-out: IC50(nM) SW620. A general note: In ATP-based viability assays light output follows the ATP content of the culture.
Data set [1] can be described thus: in vitro. The settings on record: human, microsomes.
A further data set relates to H358. In words: Cell proliferation experiment (CellTiter-Glo). In kind it is cell-based. The settings on record: Homo sapiens, NCI-H358; H358, KRAS mutation type G12C; 96 h incubation.
Data set [2] in a line: in vitro. The settings on record: rat, microsomes.
Another data set has as its system AGS. In words: Cell proliferation experiment (CellTiter-Glo). In kind it is cell-based. The settings on record: Homo sapiens, AGS, 96 h, read-out: IC50(nM) AGS.
In data set [3] the target is T1, KRAS G12D (Homo sapiens, UniProt P01116, G12D). The settings on record: AGS cell line, In Cell Western Blotting, KRAS^G12D vs GAPDH.
T1 sequence (P01116 1-188 isoform P01116-2 G12D): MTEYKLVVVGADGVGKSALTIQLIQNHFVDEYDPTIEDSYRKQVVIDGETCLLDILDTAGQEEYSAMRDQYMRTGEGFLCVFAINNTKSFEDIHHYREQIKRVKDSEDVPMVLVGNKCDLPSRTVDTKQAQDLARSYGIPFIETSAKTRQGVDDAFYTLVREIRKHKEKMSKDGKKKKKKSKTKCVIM
Data set [4] can be described thus: in vitro. The settings on record: mouse, microsomes.
The target in data set [5] is T1, KRAS G12D. The experiment in a line: cell-based. The settings on record: AGS.
Data set [6] can be described thus: PK study in Balbc mice (whole blood). In kind it is in vivo. The settings on record: Female Balbc mice, IV 1 mg/kg. As for the experimental part:
Example 7 PK Study of Compound 2 in Balbc Mice
Compound 2 was mixed with the vehicle (10% DMSO / 5% Solutol HS 15 / 85% saline), vortexed, and sonicated to prepare a clear solution at 0.2 mg/mL. Female Balbc mice aged 6 to 7 weeks (non-fasted) were intravenously administered Compound 2. Whole blood was collected at specified time points. Drug concentration was analyzed by LC-MS/MS, and pharmacokinetic parameters were calculated using Phoenix WinNonlin software (Pharsight Corporation, USA). Table 10 Mouse PK Data for Intravenous Compound 2 Monotherapy

One may read the IC50 as the point on the concentration scale where inhibition reaches its midpoint. The term microsomal CLint denotes a measure of how fast metabolising enzymes remove a compound, apart from limits set by blood flow. As usually defined, the AUC(0-t) is the area under the concentration-time curve up to a stated or last time point. A lower AUC(0-t) goes with less exposure. By half-life is commonly meant how long it takes for the measured level to halve. Take `CCc1c(F)ccc2cc(O)cc(-c3ncc4c(N5CCCC(C)(O)C5)nc(OC[C@]56CCCN5[C@@H](COC(=O)N5CCC7(CC5)CC(C(=O)N[C@H](C(=O)N5C[C@H](O)C[C@H]5C(=O)N[C@@H](C)c5ccc(-c8scnc8C)cc5)C(C)(C)C)C7)CC6)nc4c3F)c12` (stereo partly drawn) [Compound 2, ((3R,7aR)-7a-(((7-(8-ethyl-7-fluoro-3-hydroxynaphthalen-1-yl)-8-fluoro-4-(3-hydroxy-3-methylpiperidin-1-yl)pyrido[4,3-d]pyrimidin-2-yl)oxy)methyl)hexahydro-1H-pyrrolizin-3-yl)methyl 2-(((S)-1-((2S,4R)-4-hydroxy-2-(((S)-1-(4-(4-methylthiazol-5-yl)phenyl)ethyl)carbamoyl)pyrrolidin-1-yl)-3,3-dimethyl-1-oxobutan-2-yl)carbamoyl)-7-azaspiro[3.5]nonane-7-carboxylate]: the “The in vitro intrinsic clearance in liver microsomes (CLint, in vitro, µL/min/mg protein) Dog” value is 0.0 µL/min/mg protein. The IC50 in the data set with SW620 came to 501 nM. In addition, the microsomal CLint in the data set “in vitro [1]” was 31 µL/min/mg. In the data set with H358, this compound showed an IC50 of 143 nM. The compound further yielded an intrinsic metabolic clearance (microsomal CLint) in “in vitro [2]” of 11.6 µL/min/mg. Besides, the IC50 in the data set with AGS is 44 nM. This compound also displayed a DC50 at KRAS G12D [3] of 316 nM. For the same compound, the microsomal CLint in the data set “in vitro [4]” is 16.6 µL/min/mg. Further, at KRAS G12D [5], the Dmax is 95%. For the same compound, in data set [6], the “Cl_obs” value is 3.77 mL/min/kg and the “Vss_obs” value was 0.586 L/kg. Also, in data set [6] (mouse), the AUC(0-t) was determined as 4380 ng·h/mL, the C0 was 8790 ng/mL and the half-life was 6.49 h.
